± gives the expanded uncertainty stated by the source.

Data on 20 compounds can be found in the NIST ThermoML archive (doi:10.1016/j.jct.2015.05.014).

This series in a line: activity coefficient (dimensionless); of the first substance listed, at infinite dilution; xn = mol fraction of the nth substance listed. Particulars: 100 kPa, Liquid, Chromatography, x1 = 0.

Regarding `CC(C)CC(C)(C)C` [2,2,4-trimethylpentane] + CC(O)C(=O)[O-].CC[N+]1(C)CCCC1, the activity coefficient came to 270 ± 23 (308.15 K); 242 ± 21 (318.15 K); 220 ± 19 (328.15 K); 201 ± 17 (338.15 K); 187 ± 16 (348.15 K); 173 ± 15 (358.15 K). Also, the activity coefficient (368.15 K) worked out at 161 ± 14.

On to `C#CCCCC` [1-hexyne] + CC(O)C(=O)[O-].CC[N+]1(C)CCCC1, for which the activity coefficient by setting is: (308.15 K) 5.14 ± 0.44; (318.15 K) 5.48 ± 0.47; (328.15 K) 5.79 ± 0.5; (338.15 K) 6.21 ± 0.54; (348.15 K) 6.54 ± 0.56; (358.15 K) 6.92 ± 0.6. Besides, for the setting “368.15 K”, the activity coefficient turned out to be 7.24 ± 0.62.

As for `CC(C)=O` [acetone] + CC(O)C(=O)[O-].CC[N+]1(C)CCCC1, the activity coefficient by setting is: (318.15 K) 1.93 ± 0.17; (328.15 K) 1.97 ± 0.17; (338.15 K) 2.03 ± 0.18; (348.15 K) 2.08 ± 0.18; (358.15 K) 2.14 ± 0.18; (368.15 K) 2.21 ± 0.19.

As for `CCCCCCC` [heptane] + CC(O)C(=O)[O-].CC[N+]1(C)CCCC1, the activity coefficient (308.15 K) was 213 ± 18; the activity coefficient (318.15 K) stood at 196 ± 17; the activity coefficient (328.15 K) came out at 180 ± 16; the activity coefficient (338.15 K) was found to be 167 ± 14; the activity coefficient (348.15 K) is 154 ± 13; the activity coefficient (358.15 K) came to 144 ± 12. Also, the activity coefficient (368.15 K) worked out at 133 ± 12.

Turning to `CCCCO` [butan-1-ol] + CC(O)C(=O)[O-].CC[N+]1(C)CCCC1, the activity coefficient is 0.335 ± 0.036 (358.15 K); 0.361 ± 0.038 (368.15 K); 0.388 ± 0.039 (378.15 K); 0.421 ± 0.041 (388.15 K); 0.453 ± 0.043 (398.15 K); 0.486 ± 0.045 (408.15 K).

Take `C1CCCCCCC1` [cyclooctane] + CC(O)C(=O)[O-].CC[N+]1(C)CCCC1: the activity coefficient is, setting by setting: (308.15 K) 95.8 ± 8.3; (318.15 K) 88.7 ± 7.7; (328.15 K) 82.1 ± 7.1; (338.15 K) 77.2 ± 6.7; (348.15 K) 72.6 ± 6.3; (358.15 K) 68 ± 5.9. The activity coefficient (368.15 K) was found to be 63.9 ± 5.5.

As for `CCO` [ethanol] + CC(O)C(=O)[O-].CC[N+]1(C)CCCC1, the activity coefficient reads like this: (358.15 K) 0.174 ± 0.03; (368.15 K) 0.187 ± 0.03; (378.15 K) 0.201 ± 0.031; (388.15 K) 0.219 ± 0.031; (398.15 K) 0.234 ± 0.032; (408.15 K) 0.255 ± 0.033.

Turning to `Cc1ccc(C)cc1` [1,4-dimethylbenzene] + CC(O)C(=O)[O-].CC[N+]1(C)CCCC1, the activity coefficient (318.15 K) came out at 10 ± 0.9; the activity coefficient (328.15 K) was found to be 10.1 ± 0.9; the activity coefficient (338.15 K) was 10.3 ± 0.9; the activity coefficient (348.15 K) was determined as 10.4 ± 0.9; the activity coefficient (358.15 K) is 10.5 ± 0.9; the activity coefficient (368.15 K) worked out at 10.7 ± 0.9.

With `O` [water] + CC(O)C(=O)[O-].CC[N+]1(C)CCCC1, the activity coefficient stood at 0.046 (368.15 K); 0.052 (378.15 K); 0.059 (388.15 K); 0.066 ± 0.03 (398.15 K); 0.072 ± 0.03 (408.15 K).

With `Cc1ccccc1` [toluene] + CC(O)C(=O)[O-].CC[N+]1(C)CCCC1, the activity coefficient by setting is: (318.15 K) 5.36 ± 0.46; (328.15 K) 5.5 ± 0.47; (338.15 K) 5.62 ± 0.48; (348.15 K) 5.76 ± 0.5; (358.15 K) 5.89 ± 0.51; (368.15 K) 6.06 ± 0.52.

On to `C1CCOC1` [tetrahydrofuran] + CC(O)C(=O)[O-].CC[N+]1(C)CCCC1, for which the activity coefficient runs as follows: (308.15 K) 3.51 ± 0.3; (318.15 K) 3.54 ± 0.31; (328.15 K) 3.59 ± 0.31; (338.15 K) 3.62 ± 0.31; (348.15 K) 3.68 ± 0.32; (358.15 K) 3.74 ± 0.32. Also, where the note is “368.15 K”, the activity coefficient was 3.82 ± 0.33.

In the case of `CCCCCCCCCC` [decane] + CC(O)C(=O)[O-].CC[N+]1(C)CCCC1, the activity coefficient reads like this: (308.15 K) 787 ± 68; (318.15 K) 725 ± 63; (328.15 K) 651 ± 57; (338.15 K) 597 ± 52; (348.15 K) 542 ± 47; (358.15 K) 496 ± 43. Besides, where the note is “368.15 K”, the activity coefficient was 456 ± 40.

For the compound `C1COCCO1` [1,4-dioxane] + CC(O)C(=O)[O-].CC[N+]1(C)CCCC1, the activity coefficient runs as follows: (318.15 K) 2.25 ± 0.19; (328.15 K) 2.33 ± 0.2; (338.15 K) 2.4 ± 0.21; (348.15 K) 2.48 ± 0.21; (358.15 K) 2.55 ± 0.22; (368.15 K) 2.65 ± 0.23.

As to `CCC(=O)CC` [pentan-3-one] + CC(O)C(=O)[O-].CC[N+]1(C)CCCC1, the activity coefficient runs as follows: (318.15 K) 4.84 ± 0.42; (328.15 K) 4.93 ± 0.43; (338.15 K) 5.05 ± 0.44; (348.15 K) 5.14 ± 0.44; (358.15 K) 5.22 ± 0.45; (368.15 K) 5.35 ± 0.46.

Regarding `CCC(=O)OC` [methyl propanoate] + CC(O)C(=O)[O-].CC[N+]1(C)CCCC1, the activity coefficient (318.15 K) turned out to be 4.71 ± 0.41; the activity coefficient (328.15 K) turned out to be 4.79 ± 0.41; the activity coefficient (338.15 K) was found to be 4.88 ± 0.42; the activity coefficient (348.15 K) was found to be 4.97 ± 0.43; the activity coefficient (358.15 K) is 5.06 ± 0.44; the activity coefficient (368.15 K) is 5.22 ± 0.45. Further, the activity coefficient (378.15 K) was 5.32 ± 0.46.

`CCCC(C)=O` [pentan-2-one] + CC(O)C(=O)[O-].CC[N+]1(C)CCCC1: the activity coefficient (318.15 K) worked out at 4.7 ± 0.41; the activity coefficient (328.15 K) came to 4.78 ± 0.41; the activity coefficient (338.15 K) worked out at 4.85 ± 0.42; the activity coefficient (348.15 K) amounted to 4.93 ± 0.43; the activity coefficient (358.15 K) turned out to be 5.01 ± 0.43; the activity coefficient (368.15 K) came to 5.14 ± 0.44.

Turning to `c1ccncc1` [pyridine] + CC(O)C(=O)[O-].CC[N+]1(C)CCCC1, the activity coefficient reads like this: (318.15 K) 1.26 ± 0.11; (328.15 K) 1.3 ± 0.11; (338.15 K) 1.36 ± 0.11; (348.15 K) 1.41 ± 0.12; (358.15 K) 1.46 ± 0.12; (368.15 K) 1.53 ± 0.13.

Regarding `C=CCCCCCCCC` [1-decene] + CC(O)C(=O)[O-].CC[N+]1(C)CCCC1, the activity coefficient (308.15 K) came to 349 ± 30; the activity coefficient (318.15 K) stood at 326 ± 28; the activity coefficient (328.15 K) worked out at 302 ± 26; the activity coefficient (338.15 K) is 284 ± 25; the activity coefficient (348.15 K) worked out at 268 ± 23; the activity coefficient (358.15 K) worked out at 252 ± 22. Where the note is “368.15 K”, the activity coefficient came out at 238 ± 21.

`CCC(C)(C)OC` [2-methoxy-2-methylbutane] + CC(O)C(=O)[O-].CC[N+]1(C)CCCC1: the activity coefficient is 27.9 ± 2.4 (308.15 K); 27.8 ± 2.4 (318.15 K); 27.3 ± 2.4 (328.15 K); 26.8 ± 2.3 (338.15 K); 26.3 ± 2.3 (348.15 K); 26.1 ± 2.3 (358.15 K). The activity coefficient (368.15 K) came out at 25.8 ± 2.2.

With `CCCCCCCC` [octane] + CC(O)C(=O)[O-].CC[N+]1(C)CCCC1, the activity coefficient by setting is: (308.15 K) 334 ± 29; (318.15 K) 307 ± 27; (328.15 K) 275 ± 24; (338.15 K) 254 ± 22; (348.15 K) 236 ± 20; (358.15 K) 217 ± 19. Moreover, the activity coefficient (368.15 K) was determined as 200 ± 17.
